This note sets out measurements from patent US11254668B2, “Pyrazolo[1,5-A]pyrazin-4-yl and related derivatives” (Pfizer Inc., priority 2017, dated 2022).

What all share (type): biochemical
Assay [1] addresses TYK2 (Homo sapiens (Human), UniProt P29597). Kind of assay: JAK Caliper Enzyme Assay at 1 mM ATP, TYK2. How it is done: (§1) Compounds of the invention were evaluated by in vitro methods to determine their respective ability to inhibit the JAK kinases (TYK2, JAK1, JAK2, JAK3).
(§2) The human JAK inhibitory activity was determined by using a microfluidic assay to monitor phosphorylation of a synthetic peptide by the recombinant human kinase domain of each of the four members of the JAK family, JAK1, JAK2, JAK3 and TYK2. […] Each assay condition was optimized for enzyme concentration and room temperature incubation time to obtain a conversion rate of 20% to 30% phosphorylated peptide product. Reactions were terminated by the addition of stop buffer containing EDTA. Utilizing the LabChip 3000 mobility shift technology (Caliper Life Science), each assay reaction was sampled to determine the level of phosphorylation. This technology is separation-based, allowing direct detection of fluorescently labeled substrates and products. Separations are controlled by a combination of vacuum pressure and electric field strength optimized for each peptide substrate.
(§3) JAK Caliper Enzyme Assay at 1mM ATP
(§4) Compounds were added to a 384-well plate.
(§5) The data was collected using the HTS Well Analyzer software from Caliper Life Sciences. The data output for data analysis is the percent product converted calculated on peak height (Equation 1). % product converted=100*((product)/(product+substrate)) Equation 1: […]
(§6) The percent effect at each compound concentration was calculated based on the positive and negative control well contained within each assay plate (Equation 2). […] The negative control wells contained DMSO alone (at the same concentration as the compound wells) that was used to set the baseline activity in the assay (i.e., uninhibited JAK1, JAK2, JAK3 or TYK2). % effect=100*([…](positive control-negative control)) Equation 2: […]
(§7) The percent effect was plotted against the compound concentration compound.

Assay [2] addresses JAK3 (Homo sapiens (Human), UniProt P52333). Kind of assay: JAK Caliper Enzyme Assay at 1 mM ATP, JAK3. How it is done: as §1, §2, §3, §4, §5, §6, §7
Assay [3] deals with JAK1 (Homo sapiens (Human), UniProt P23458). Kind of assay: JAK Caliper Enzyme Assay at 1 mM ATP, JAK1. How it is done: as §1, §2, §3, §4, §5, §6, §7

Like-named read-outs stand apart in the source and are kept apart here.

TYK2, sequence (P29597 897-1176): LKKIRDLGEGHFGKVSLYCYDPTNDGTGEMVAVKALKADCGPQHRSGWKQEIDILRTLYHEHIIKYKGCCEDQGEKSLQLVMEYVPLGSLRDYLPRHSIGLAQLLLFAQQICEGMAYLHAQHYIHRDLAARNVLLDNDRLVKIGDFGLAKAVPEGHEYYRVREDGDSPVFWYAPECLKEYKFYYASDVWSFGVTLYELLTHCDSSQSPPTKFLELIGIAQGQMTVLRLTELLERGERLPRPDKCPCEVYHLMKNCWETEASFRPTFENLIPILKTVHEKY
JAK1, sequence (P23458 875-1153): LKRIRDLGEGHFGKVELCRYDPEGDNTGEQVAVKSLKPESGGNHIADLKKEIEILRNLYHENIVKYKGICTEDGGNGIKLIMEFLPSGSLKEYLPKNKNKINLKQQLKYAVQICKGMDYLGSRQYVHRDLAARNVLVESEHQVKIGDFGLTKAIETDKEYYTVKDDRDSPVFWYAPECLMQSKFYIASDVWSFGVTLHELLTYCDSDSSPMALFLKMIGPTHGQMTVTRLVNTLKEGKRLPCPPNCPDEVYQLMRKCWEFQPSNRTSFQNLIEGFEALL
JAK3, sequence (P52333 822-1111): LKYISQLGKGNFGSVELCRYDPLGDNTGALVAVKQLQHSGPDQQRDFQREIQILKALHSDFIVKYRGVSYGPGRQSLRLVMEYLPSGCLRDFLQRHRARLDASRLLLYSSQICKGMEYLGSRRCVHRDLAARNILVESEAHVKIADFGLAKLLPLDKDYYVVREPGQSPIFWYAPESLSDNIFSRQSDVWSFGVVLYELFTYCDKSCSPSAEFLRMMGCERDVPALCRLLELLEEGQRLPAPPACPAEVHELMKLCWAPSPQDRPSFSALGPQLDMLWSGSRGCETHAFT

`N#CC[C@]1(n2cc(-c3nc(-c4cnn(CCO)c4)cc4ncccc34)cn2)C[C@@H](C#N)C1` [Example 6, cis-3-(cyanomethyl)-3-(4-{7-[1-(2-hydroxyethyl)-1H-pyrazol-4-yl]-1,6-naphthyridin-5-yl}-1H-pyrazol-1-yl)cyclobutanecarbonitrile]: the IC50 in assay [1] is 15 nM; in assay [2], 1120 nM; in assay [3] it was 21 nM.
Taken in the same sequence, the figures for `N#CC[C@]1(n2cc(-c3nc(-c4cnn(CCO)c4)cc4ncccc34)cn2)C[C@H](C#N)C1` [Example 7, trans-3-(cyanomethyl)-3-(4-{7-[1-(2-hydroxyethyl)-1H-pyrazol-4-yl]-1,6-naphthyridin-5-yl}-1H-pyrazol-1-yl)cyclobutanecarbonitrile] were 89 nM, over 10000 nM and 189 nM.
Regarding `N#CCC1(n2ccc(-c3nc(-c4ccn[nH]4)cc4ncccc34)n2)CN(S(=O)(=O)C2CC2)C1` [Example 18, [1-(cyclopropylsulfonyl)-3-{3-[7-(1H-pyrazol-5-yl)-1,6-naphthyridin-5-yl]-1H-pyrazol-1-yl}azetidin-3-yl]acetonitrile], the figures for the IC50 in assay [1], in assay [2] and in assay [3] were 20 nM, over 10000 nM and 451 nM, respectively.
Turning to `CC(=O)N(C)C1CC(CC#N)(n2ccc(-c3nc(-c4cc[nH]n4)cc4ncccc34)n2)C1` (stereo not drawn) [Example 33, N-[trans-3-(cyanomethyl)-3-{3-[7-(1H-pyrazol-3-yl)-1,6-naphthyridin-5-yl]-pyrazol-1-yl}cyclobutyl]-N-methylacetamide], the IC50 in assay [1] was 850 nM; in assay [2], over 10000 nM; in assay [3], 5700 nM.
With `CC(=O)N(C)[C@H]1C[C@](CC#N)(n2ccc(-c3nc(-c4cc[nH]n4)cc4ncccc34)n2)C1` [Example 34, N-[cis-3-(cyanomethyl)-3-{3-[7-(1H-pyrazol-3-yl)-1,6-naphthyridin-5-yl]-pyrazol-1-yl}cyclobutyl]-N-methylacetamide], the figures for the half-inhibitory concentration (IC50) in assay [1], in assay [2] and in assay [3] were 238 nM, over 10000 nM and 1700 nM, respectively.
With `Cc1cc(-c2cc3ncccc3c(-c3ccn(C4(CC#N)CN(CC(F)(F)F)C4)n3)n2)n[nH]1` [Example 42, [3-{3-[7-(5-methyl-1H-pyrazol-3-yl)-1,6-naphthyridin-5-yl]-1H-pyrazol-1-yl}-1-(2,2,2-trifluoroethyl)azetidin-3-yl]acetonitrile], the concentration for half-maximal inhibition (IC50) in assay [1] was 36 nM; in assay [2] it was over 10000 nM; in assay [3], 1610 nM.
Taken in the same sequence, the figures for `Cn1nc(-c2cc3ncccc3c(-c3ccn([C@]4(CC#N)C[C@@H](C#N)C4)n3)n2)cc1CO` [Example 62, trans-3-(cyanomethyl)-3-(3-{7-[5-(hydroxymethyl)-1-methyl-1H-pyrazol-3-yl]-1,6-naphthyridin-5-yl}-1H-pyrazol-1-yl)cyclobutanecarbonitrile] were 153 nM, over 10000 nM and over 10000 nM.
Regarding `Cn1nc(-c2cc3ncccc3c(-c3ccn([C@]4(CC#N)C[C@H](C#N)C4)n3)n2)cc1CO` [Example 63, cis-3-(cyanomethyl)-3-(3-{7-[5-(hydroxymethyl)-1-methyl-1H-pyrazol-3-yl]-1,6-naphthyridin-5-yl}-1H-pyrazol-1-yl)cyclobutanecarbonitrile], the values for the IC50 in assay [1], in assay [2] and in assay [3] were 17 nM, 6550 nM and 672 nM, respectively.
For the molecule `Cn1nc(-c2cc3ncccc3c(-c3ccn([C@]4(CC#N)C[C@@H](C#N)C4)n3)n2)cc1N` [Example 65, trans-3-{3-[7-(5-amino-1-methyl-1H-pyrazol-3-yl)-1,6-naphthyridin-5-yl]-1H-pyrazol-1-yl}-3-(cyanomethyl)cyclobutanecarbonitrile], the figures for the IC50 in assay [1], in assay [2] and in assay [3] were 18 nM, over 10000 nM and 1590 nM, respectively.
Regarding `Cn1nc(-c2cc3ncccc3c(-c3ccn([C@]4(CC#N)C[C@H](C#N)C4)n3)n2)cc1N` [Example 66, cis-3-{3-[7-(5-amino-1-methyl-1H-pyrazol-3-yl)-1,6-naphthyridin-5-yl]-1H-pyrazol-1-yl}-3-(cyanomethyl)cyclobutanecarbonitrile], the IC50 was found to be 7 nM in assay [1], 2500 nM in assay [2] and 155 nM in assay [3].
`Cn1nccc1C1CC(CC#N)(n2ccc(-c3nc(-c4cn[nH]c4)cc4ncccc34)n2)C1` (stereo not drawn) [Example 86, [cis-3-(1-methyl-1H-pyrazol-5-yl)-1-{3-[7-(1H-pyrazol-4-yl)-1,6-naphthyridin-5-yl]-1H-pyrazol-1-yl}cyclobutyl]acetonitrile]: the results for the IC50 in assay [1], in assay [2] and in assay [3] were 430 nM, over 10000 nM and 2410 nM, respectively.
In the case of `Cn1cc(-c2cc3ncccc3c(-c3ccn(C4(CC#N)CN(CC5CC5)C4)n3)n2)cn1` [Example 101, [1-(cyclopropylmethyl)-3-{3-[7-(1-methyl-1H-pyrazol-4-yl)-1,6-naphthyridin-5-yl]-1H-pyrazol-1-yl}azetidin-3-yl]acetonitrile], the values for the IC50 in assay [1], in assay [2] and in assay [3] were 73 nM, over 10000 nM and 2040 nM, respectively.
Taken in the same sequence, the figures for `CCn1cc(-c2cc3ncccc3c(-c3ccn(C4(CC#N)CC(C#N)C4)n3)n2)cn1` (stereo not drawn) [Example 112, cis-3-(cyanomethyl)-3-{3-[7-(1-ethyl-1H-pyrazol-4-yl)-1,6-naphthyridin-5-yl]-1H-pyrazol-1-yl}cyclobutanecarbonitrile] were 12 nM, 634 nM and 43 nM.
For `CCn1cc(-c2cc3ncccc3c(-c3ccn([C@]4(CC#N)C[C@@H](C#N)C4)n3)n2)cn1` [Example 113, trans-3-(cyanomethyl)-3-{3-[7-(1-ethyl-1H-pyrazol-4-yl)-1,6-naphthyridin-5-yl]-1H-pyrazol-1-yl}cyclobutanecarbonitrile], the IC50 in assay [1] stood at 22 nM; in assay [2] it was 8970 nM; in assay [3], 409 nM.
Turning to `C=C(CO)n1cc(-c2cc3ncccc3c(-c3ccn(C4(CC#N)CN(S(C)(=O)=O)C4)n3)n2)cn1` [Example 131, [3-(3-{7-[1-(3-hydroxyprop-1-en-2-yl)-1H-pyrazol-4-yl]-1,6-naphthyridin-5-yl}-1H-pyrazol-1-yl)-1-(methylsulfonyl)azetidin-3-yl]acetonitrile], the IC50 was 251 nM in assay [1], over 10000 nM in assay [2] and 1630 nM in assay [3].
Consider `CS(=O)(=O)N1CC(CC#N)(n2ccc(-c3nc(-c4cnn(CC5(O)COC5)c4)cc4ncccc34)n2)C1` [Example 133, {3-[3-(7-{1-[(3-hydroxyoxetan-3-yl)methyl]-1H-pyrazol-4-yl}-1,6-naphthyridin-5-yl)-1H-pyrazol-1-yl]-1-(methylsulfonyl)azetidin-3-yl}acetonitrile], for which the IC50 was 76 nM in assay [1], over 10000 nM in assay [2] and 1670 nM in assay [3].
Take `N#CCC1(n2ccc(-c3nc(-c4ncc[nH]4)cc4ncccc34)n2)CN(CC(F)(F)F)C1` [Example 148, [3-{3-[7-(1H-imidazol-2-yl)-1,6-naphthyridin-5-yl]-1H-pyrazol-1-yl}-1-(2,2,2-trifluoroethyl)azetidin-3-yl]acetonitrile]: the IC50 is 235 nM in assay [1], over 10000 nM in assay [2] and 8800 nM in assay [3].
On the same counts, the results for `Cn1cnc(-c2cc3ncccc3c(-c3ccn(C4(CC#N)CN(CC(F)(F)F)C4)n3)n2)c1` [Example 149, [3-{3-[7-(1-methyl-1H-imidazol-4-yl)-1,6-naphthyridin-5-yl]-1H-pyrazol-1-yl}-1-(2,2,2-trifluoroethyl)azetidin-3-yl]acetonitrile] are 125 nM, over 10000 nM and over 10000 nM.
Take `N#CCC1(n2ccc(-c3nc(-c4cnn(C5CCCCO5)n4)cc4ncccc34)n2)CN(CC(F)(F)F)C1` (stereo not shown) [Example 155, [3-(3-{7-[2-(tetrahydro-2H-pyran-2-yl)-2H-1,2,3-triazol-4-yl]-1,6-naphthyridin-5-yl}-1H-pyrazol-1-yl)-1-(2,2,2-trifluoroethyl)azetidin-3-yl]acetonitrile]: the IC50 in assay [1] was 312 nM; in assay [2], over 10000 nM; in assay [3], 6460 nM.
For the molecule `N#CCC1(n2ncc(-c3cc(-c4cccc(C(N)=O)c4)cc4ncccc34)n2)CC(C#N)C1` (stereo not drawn) [Example 431, 3-(5-{2-[cis-3-cyano-1-(cyanomethyl)cyclobutyl]-2H-1,2,3-triazol-4-yl}quinolin-7-yl)benzamide], the IC50 is over 10000 nM in assay [2] (JAK Caliper enzyme assay) and 572 nM in assay [3] (JAK Caliper enzyme assay).
As to `N#CC[C@]1(n2ncc(-c3cc(-c4cccc(C(N)=O)c4)cc4ncccc34)n2)C[C@@H](C#N)C1` [Example 432, 3-(5-{2-[trans-3-cyano-1-(cyanomethyl)cyclobutyl]-2H-1,2,3-triazol-4-yl}quinolin-7-yl)benzamide], the IC50 in assay [2] (JAK Caliper enzyme assay) is over 10000 nM; in assay [3] (JAK Caliper enzyme assay), 3900 nM.

Broadly, the IC50 is the concentration that gives 50% inhibition.
